Experimental data as given in patent publication US4048334A, “Active derivatives of methylamino in therapeutic compositions and methods of use” (priority 1974, dated 1977).

Experiments:
in vivo = settings: mouse, mice, oral, aqueous solution, 10 days observation
[1] = tested on: reserpine-induced and neuroleptic-induced catatonia; experiment: Toxico-pharmacological index (LD50 / effective dose in catatonia); settings: ED20-30: 20 to 30% inhibition of the catatonia
[2] = tested on: reserpine-induced catatonia; experiment: Inhibition of reserpine-induced catatonia; format: in vivo, rat (male, OFA strain)
Procedure: 1. Inhibition of reserpine-induced catatonia
After sufficient doses of reserpine have been administered to the rat, a series of symptoms occur, more particularly ptosis, catatonia and a drop in central temperature. These symptoms are caused by the depletion of the intragranular reserve pool of boigenetic amines at the synaptic terminals.
An oral dose of the compound to be studied in aqueous solution was administered to batches of 10 male rats of the OFA strain weighing about 150 to 200 g. Thirty minutes later a dose of 5 mg/kg of reserpine was given by intraperitoneal route. Three hours after the injection of reserpine, the animals were suspended by the four paws to a horizontally stretched wire fixed at 15 cm from the ground. The catatonic animals were those which maintained the position so given for at least 30 seconds. […] The maximum score was therefore 10 per batch. An identical trial was undertaken with control animals which received reserpine but none of the compounds being studied.

[3] = tested on: neuroleptic-induced catatonia; experiment: Inhibition of neuroleptic-induced catatonia (prochlorperazine); format: in vivo, rat (male, OFA strain)
Procedure: 2. Inhibition of neuroleptic-induced catatonia
The blocking of dopaminergic receptors by neuroleptics in the extra-pyramidal system induces catatonia in the rat. Catatonia is differentiated from sedative properties by means of the test used hereabove for reserpine-induced catatonia. The same system of scoring was also employed in the present case.
An oral dose of the compound to be studied in aqueous solution was administered to batches of 10 male rats of the OFA strain weighing about 150 to 200 g. […] Three hours after the injection of this latter compound, catatonia was measured. An identical trial was also carried out with control animals which received prochlorperazine but none of the compounds under study.
The scoring system, used was that given hereabove in Table I.

[4] = tested on: neuroleptic-induced catatonia; experiment: Suppression of neuroleptic-induced catatonia (curative treatment, prochlorperazine); format: in vivo, rat (male, OFA strain); settings: 80 mg/kg oral
Procedure: b. Suppression of neuroleptic-induced catatonia
Batches of 5 male rats of the OFA strain were given 12.5 mg/kg of prochlorperazine by intraperitoneal route. Fifty-five minutes later, an oral dose in aqueous solution of the compound to be studied was administered to all the animals with the exception of the control group. The progress of the catatonia was noted following the same scale as that used in the tests described above.

electrocardiogram = experiment: Effect on the electrocardiogram; format: in vivo; settings: dog, 5 mg/kg injected
[5] = tested on: peripheral noradrenergic phenomena (arterial pressure, nictitating membrane); settings: cat, in vivo
catalepsy = experiment: Inhibition of catalepsy (crossing of homolateral paws, prochlorperazine); format: in vivo, rat; settings: Rattus norvegicus, po, read-out: dose necessary to induce complete inhibition of the catalepsy; prochlorperazine catalepsy
Procedure: Additional trials were carried out on rats with Compound 1 and amantadine. These trials involved catalepsy as evidenced by the crossing of the animals' homolateral paws.

[6] = tested on: peripheral noradrenergic phenomena (arterial pressure, nictitating membrane); experiment: Influence on peripheral noradrenergic phenomena (norepinephrine, arterial pressure and nictitating membrane)
[7] = tested on: reserpine-induced catatonia; experiment: Suppression of reserpine-induced catatonia (curative treatment); format: in vivo, rat (male, OFA strain); parameters: key to catatonia score (maximum 5 per batch): number of animals (of 5) still in catatonia; max 5 per batch; settings: 80 mg/kg oral
Procedure: a. Suppression of reserpine-induced catatonia
Batches of 5 male rats of the OFA strain, weighing 150 to 200 g were given 5 mg/kg of reserpine by intraperitoneal route. One hour and 45 minutes later, namely when the animals were in a state of catatonia, an aqueous dose of the compound to be studied was administered by oral route to all the animals with the exception of the control group.
The progress of the catatonia was then noted following the scale used in the tests described hereabove.
The maximum score was thus 5 per batch which means that all the animals of the batch were considered to be still in a state of catatonia.

[8] = tested on: tremorine-induced cholinergic effects; experiment: Anti-tremorine test (cholinolytic properties in vivo); parameters: species or system mice (male, OF1 strain); key to peripheral cholinergic effects score (salivation, sweating, weeping): 0: no action; 1: slight action; 2: average action; 3: strong action; 4: very strong action
Procedure: For this purpose, the following test was performed with a view to determining the anti-tremorine properties of Compound 1.
When injected into mice, tremorine produces peripheral effects i.e. weeping, sweating, salivation and diarrhoea and central effects i.e. tremor and akinesia. Such effects are due to an increase in the amount of intracerebral acetylcholine and serotonine.
Male mice of the OF1 strain weighing about 22 g were divided into batches of 10. […] Thirty minutes later a dose of 10 mg/kg of tremorine was injected by intraperitoneal route and, at different times after this injection, note was taken of the cholinergic effects on each animal in accordance with the following scale: […]

[9] = Toxico-pharmacological index (LD50 / effective dose in catatonia); settings: in vivo
[10] = SPERBER et al., J. Amer. Chem. Soc., 71, 3352 (1949); cited from earlier work
[11] = tested on: isolated duodenum of the rat; experiment: MAGNUS test: inhibition of acetylcholine spasm (cholinolytic / spasmolytic activity in vitro)
Description: This test consists in determining the dose of acetylcholine which, when added to the bath, provokes spasm of the isolated duodenum of the rat. The next step consists in determining the dose of the compound under study which, when added to the bath 30 seconds before the acetylcholine, reduces the spasm.

[12] = 20 mg/kg oral, 30 min before reserpine
[13] = 20 mg/kg oral, 30 min before prochlorperazine

## CCCCCC(C)(N)CCC (stereo not shown) [Compound 9, 1-Methyl-1-n-propyl-n-hexylamine]
In vivo
  LD50 at 240 h: 1750 mg/kg
[1]
  Index LD50/ED20-30: 87
[2]; [12]
  Inhibition of reserpine-induced catatonia: 1 (20 to 30% inhibition of catatonia in comparison with the controls (namely a score of 7 to 8 per studied batch))
[3]; [13]
  Inhibition of the neuroleptic-induced catatonia: 1 (20 to 30% inhibition of catatonia in comparison with the controls (namely a score of 7 to 8 per studied batch))

## NC12CC3CC(CC(C3)C1)C2 [Amantadine, 1-amino-adamantane]
[4]; 1h30 after prochlorperazine
  catatonia score (5 rats per batch): 5
[4]; 2h30 after prochlorperazine
  catatonia score (5 rats per batch): 2
[4]; 3h30 after prochlorperazine
  catatonia score (5 rats per batch): 0
[4]; 3h after prochlorperazine
  catatonia score (5 rats per batch): 1
[4]; 4h after prochlorperazine
  catatonia score (5 rats per batch): 0
[4]; 5h after prochlorperazine
  catatonia score (5 rats per batch): 0
electrocardiogram
  effect on the electrocardiogram: cardiac arrhythmia due to ventricular extrasystoles
[5]
  dose from which exogenous norepinephrine is potentiated: ≥ 1 mg/kg
  dose from which ganglioplegic properties are shown: ≥ 5 mg/kg
[2]; 100 mg/kg oral, 30 min before reserpine
  Inhibition of reserpine-induced catatonia: 4 (100% inhibition of catatonia in comparison with the controls (namely a score of 0 per studied batch))
[3]; 100 mg/kg oral, 30 min before prochlorperazine
  Inhibition of the neuroleptic-induced catatonia: 4 (100% inhibition of catatonia in comparison with the controls (namely a score of 0 per studied batch))
catalepsy
  ED100: 80 mg/kg
[6]; cumulative dose 0.1 mg/kg i.v.
  Contractile reaction of the nictitating membrane with electric stimulation: 20 mm
  Contractile reaction of the nictitating membrane without electric stimulation: 0 mm
  Increase in arterial pressure after injection of norepinephrine: 29 mm Hg
[6]; cumulative dose 1 mg/kg i.v.
  Contractile reaction of the nictitating membrane with electric stimulation: 20 mm
  Contractile reaction of the nictitating membrane without electric stimulation: 3 mm
  Increase in arterial pressure after injection of norepinephrine: 35 mm Hg
[6]; cumulative dose 3 mg/kg i.v.
  Contractile reaction of the nictitating membrane with electric stimulation: 16 mm
  Contractile reaction of the nictitating membrane without electric stimulation: 4.4 mm
  Increase in arterial pressure after injection of norepinephrine: 35 mm Hg
[6]; cumulative dose 5 mg/kg i.v.
  Contractile reaction of the nictitating membrane with electric stimulation: 10 mm
  Contractile reaction of the nictitating membrane without electric stimulation: 5.9 mm
  Increase in arterial pressure after injection of norepinephrine: 59 mm Hg
[6]; cumulative dose 10 mg/kg i.v.
  Contractile reaction of the nictitating membrane with electric stimulation: 4 mm
  Contractile reaction of the nictitating membrane without electric stimulation: 7.5 mm
  Increase in arterial pressure after injection of norepinephrine: 57 mm Hg
[6]; in vivo
  ganglioplegic action: exerts a ganglioplegic action
  own effect on contractile reaction of the nictitating membrane: stimulates the contractile reaction of the nictitating membrane
  potentiation of (peripheral) effects of norepinephrine: potentiates the peripheral adrenergic effects
  potentiation of the effects of the electric stimulation: does not potentiate the effects of the electric stimulation
[7]; 2h15 after reserpine
  catatonia score (maximum 5 per batch): 4
[7]; 2h30 after reserpine
  catatonia score (maximum 5 per batch): 3
[7]; 3h30 after reserpine
  catatonia score (maximum 5 per batch): 1
[7]; 2h after reserpine
  catatonia score (maximum 5 per batch): 5
[7]; 3h after reserpine
  catatonia score (maximum 5 per batch): 2
[7]; 4h after reserpine
  catatonia score (maximum 5 per batch): 0
[7]; 5h after reserpine
  catatonia score (maximum 5 per batch): 0
[8]; 40 mg/kg oral, 20, 30 and 40 minutes after tremorine 10 mg/kg i.p.
  peripheral cholinergic effects score (salivation, sweating, weeping): 4
[8]; 40 mg/kg oral, identical to the peripheral score (4)
  central cholinergic effects (normal and provoked tremor): Identical results
[8]; mouse, in vivo
  antitremorine properties: devoid of antitremorine properties

## CCCC(N)(CC)CCC [Compound 2, 1-Ethyl-1-n-propyl-n-butylamine]
In vivo
  LD50 at 240 h: 150 mg/kg
[9]
  selectivity ratio: 25
[2]; 5 mg/kg oral, 30 min before reserpine 5 mg/kg i.p.
  Inhibition of reserpine-induced catatonia: 1 (20 to 30% inhibition of catatonia in comparison with the controls (namely a score of 7 to 8 per studied batch))
[3]; 5 mg/kg oral, 30 min before prochlorperazine 12.5 mg/kg i.p.
  Inhibition of the neuroleptic-induced catatonia: 1 (20 to 30% inhibition of catatonia in comparison with the controls (namely a score of 7 to 8 per studied batch))

## CCCCC(N)(CCCC)CCCC [Compound 12, 1,1-Di-n-butyl-n-pentylamine]
[10]
  spasmolytic activity and toxicity versus corresponding trialkylethylamines: less spasmolytic and more toxic than the corresponding trialkylethylamines
In vivo
  LD50 at 240 h: 500 mg/kg
[1]
  Index LD50/ED20-30: 25
[2]; [12]
  Inhibition of reserpine-induced catatonia: 1 (20 to 30% inhibition of catatonia in comparison with the controls (namely a score of 7 to 8 per studied batch))
[3]; [13]
  Inhibition of the neuroleptic-induced catatonia: 1 (20 to 30% inhibition of catatonia in comparison with the controls (namely a score of 7 to 8 per studied batch))

## CCCC(C)(N)CC(C)CC (stereo not shown) [Compound 6, 1,3-Dimethyl-1-n-propyl-n-pentylamine]
In vivo
  LD50 at 240 h: > 500 mg/kg
[1]
  Index LD50/ED20-30: > 25
[2]; [12]
  Inhibition of reserpine-induced catatonia: 1 (20 to 30% inhibition of catatonia in comparison with the controls (namely a score of 7 to 8 per studied batch))
[3]; [13]
  Inhibition of the neuroleptic-induced catatonia: 1 (20 to 30% inhibition of catatonia in comparison with the controls (namely a score of 7 to 8 per studied batch))

## CCCCCCCC(C)(C)N [Compound 10, 1,1-Dimethyl-n-octylamine]
[2]; [12]
  Inhibition of reserpine-induced catatonia: 1 (20 to 30% inhibition of catatonia in comparison with the controls (namely a score of 7 to 8 per studied batch))
[3]; 50 mg/kg oral, 30 min before prochlorperazine
  Inhibition of the neuroleptic-induced catatonia: 1 (20 to 30% inhibition of catatonia in comparison with the controls (namely a score of 7 to 8 per studied batch))

## CN1[C@@H]2CC[C@H]1C[C@@H](OC(=O)C(CO)c1ccccc1)C2 (stereo partly shown) [Atropine, reference compound]
[11]; 0.1 × 10^-6 g/ml of bath
  % of inhibition of the spasm: 45%
[11]; 0.2 × 10^-6 g/ml of bath
  % of inhibition of the spasm: 100%

## CCC(C)(C)N [Compound 16, 1,1-Dimethyl-n-propylamine]
[2]; 50 mg/kg oral, 30 min before reserpine
  Inhibition of reserpine-induced catatonia: 1 (20 to 30% inhibition of catatonia in comparison with the controls (namely a score of 7 to 8 per studied batch))
[3]; 10 mg/kg oral, 30 min before prochlorperazine
  Inhibition of the neuroleptic-induced catatonia: 1 (20 to 30% inhibition of catatonia in comparison with the controls (namely a score of 7 to 8 per studied batch))
